From ChEMBL document CHEMBL1130203, “Novel fluoroquinolone antibacterial agents containing oxime-substituted (aminomethyl)pyrrolidines: synthesis and antibacterial activity of 7-(4-(aminomethyl)-3-(methoxyimino)pyrrolidin-1-yl)-1-cyclopropyl-6- fluoro-4-oxo-1,4-dihydro[1,8]naphthyridine-3-carboxylic acid (LB20304)” (J Med Chem, 1997)
Values after ≈ are worked out from the molar mass of the structure shown.

How the values were obtained:
[1] = tested on: Acinetobacter calcoaceticus; assay: Minimum inhibitory concentration (MIC) against Acinetobacter calcoaceticus; format: functional
Bacillus subtilis = assay: Minimum inhibitory concentration (MIC) against Bacillus subtilis ATCC 6633; format: functional
Escherichia coli [2] = assay: Minimum inhibitory concentration (MIC) against Escherichia coli 10536; format: functional
Escherichia coli [3] = assay: Minimum inhibitory concentration (MIC) against Escherichia coli 3190Y; format: functional
Escherichia coli [4] = assay: Minimum inhibitory concentration (MIC) against Escherichia coli TEM9 2639E; format: functional
Klebsiella aerogenes = assay: Minimum inhibitory concentration (MIC) against Klebsiella aerogenes 1082E; format: functional
Pseudomonas aeruginosa [5] = assay: Minimum inhibitory concentration (MIC) against Pseudomonas aeruginosa 1912E; format: functional
Staphylococcus aureus [6] = assay: Minimum inhibitory concentration (MIC) against Staphylococcus aureus 241; format: functional
Staphylococcus aureus [7] = assay: Minimum inhibitory concentration (MIC) against Staphylococcus aureus 6538p.; format: functional
[8] = tested on: Staphylococcus epidermidis; assay: Minimum inhibitory concentration (MIC) against Staphylococcus epidermidis 887E; format: functional
[9] = tested on: Staphylococcus epidermidis; assay: Minimum inhibitory concentration (MIC) against Staphylococcus epidermidis 178; format: functional
Staphylococcus aureus [10] = assay: Minimum inhibitory concentration (MIC) against Staphylococcus aureus giorgio; format: functional
Enterococcus faecalis = assay: Minimum inhibitory concentration (MIC) against Streptococcus faecalis 29212; format: functional
Enterobacter cloacae = assay: Minimum inhibitory concentration (MIC) against Enterobacter cloacae P99; format: functional
[11] = maximum Plasma concentration in Rats was determined after Peroral administration; format: ADME, organism-based; parameters: route oral; conditions: rat, po
[12] = Area under curve was determined in Rats after peroral administration; format: ADME, organism-based; conditions: rat, in vivo, po
[13] = Half-life in Rats was determined after Peroral administration; format: ADME, organism-based; conditions: rat, in vivo, po
[14] = Oral bioavailability in rat; format: ADME, organism-based; conditions: in vivo
[15] = Tmax was determined in Rats after Peroral administration; format: ADME, organism-based; conditions: rat, in vivo, po
[16] = tested on: Acinetobacter calcoaceticus; assay: Minimum inhibitory concentration (MIC) against Acinetobacter calcoaceticus 15473; format: functional
Mus musculus [17] = species: Mus musculus; assay: 50% Effective Dose against systemic infection in mouse by Pseudomonas aeruginosa 1912E; format: functional
Mus musculus [18] = species: Mus musculus; assay: 50% Effective Dose against systemic infection in mouse by Staphylococcus aureus giorgo; format: functional
Mus musculus [19] = species: Mus musculus; assay: 50% Effective Dose against systemic infection in mouse by Escherichia coli 851E; format: functional
Escherichia coli [20] = assay: Minimum inhibitory concentration (MIC) against Escherichia coli 851E
Pseudomonas aeruginosa [21] = assay: Minimum inhibitory concentration (MIC) against Pseudomonas aeruginosa 1912E
Streptococcus pneumoniae = assay: Minimum inhibitory concentration (MIC) against Streptococcus pneumoniae 77A
Staphylococcus aureus [22] = assay: Minimum inhibitory concentration (MIC) against Staphylococcus aureus giorgo
[23] = maximum Plasma concentration in Dog was determined after Peroral administration; format: ADME, organism-based, Canis lupus familiaris; parameters: route oral; conditions: po
[24] = Area under curve was determined in Dogs after peroral administration; format: ADME, organism-based, Canis lupus familiaris; conditions: dog, in vivo, po
[25] = Oral Bioavailability was determined in Dogs after Peroral administration; format: ADME, organism-based, Canis lupus familiaris; conditions: dog, in vivo
[26] = Tmax was determined in dogs after Peroral administration; format: ADME, organism-based, Canis lupus familiaris; conditions: dog, in vivo, po
[27] = Half-life in Dogs was determined after Peroral administration; format: ADME, organism-based, Canis lupus familiaris; conditions: dog, in vivo, po
Mus musculus [28] = species: Mus musculus; assay: 50% Effective dose against systemic Infection in mouse by Escherichia coli 851E; format: functional
Mus musculus [29] = species: Mus musculus; assay: 50% Effective dose against systemic Infection in mouse by Pseudomonas aeruginosa 1912E; format: functional
Mus musculus [30] = species: Mus musculus; assay: 50% Effective dose against systemic Infection in mouse by Staphylococcus aureus giorgio; format: functional
Mus musculus [31] = species: Mus musculus; assay: 50% Effective dose against systemic Infection in mouse by Streptococcus pneumoniae 77A; format: functional
Mus musculus [32] = species: Mus musculus; assay: Minimum inhibitory concentration (MIC) against systemic infection in mouse by Staphylococcus aureus giorgio; format: functional
Mus musculus [33] = species: Mus musculus; assay: Minimum inhibitory concentration (MIC) against systemic infection in mouse by Streptococcus pneumoniae 77A; format: functional
[34] = Escherichia coli, read-out: MIC
[35] = Klebsiella aerogenes, read-out: MIC
[36] = Pseudomonas aeruginosa, read-out: MIC
[37] = Staphylococcus aureus, read-out: MIC
[38] = Staphylococcus epidermidis, read-out: MIC
[39] = Enterococcus faecalis, read-out: MIC

SMILES | MIC (Bacillus subtilis) [µg/mL] | MIC (Escherichia coli [2]) [µg/mL] | MIC (Escherichia coli [3]) [µg/mL] | MIC (Escherichia coli [4]; [34]) [µg/mL] | MIC (Klebsiella aerogenes; [35]) [µg/mL] | MIC (Pseudomonas aeruginosa [5]; [36]) [µg/mL] | MIC (Staphylococcus aureus [6]; [37]) [µg/mL] | MIC (Staphylococcus aureus [7]) [µg/mL] | MIC [8] [µg/mL] | MIC [9, 38] [µg/mL] | MIC (Staphylococcus aureus [10]) [µg/mL] | MIC (Enterococcus faecalis; [39]) [µg/mL] | MIC (Enterobacter cloacae) [µg/mL] | Cmax [11] [ng/mL] | AUC [12] [ng·h/mL] | half-life [13] [h] | bioavailability [14] [%] | Tmax [15] [h] | MIC (Escherichia coli [20]) [µg/mL] | MIC (Pseudomonas aeruginosa [21]) [µg/mL] | also measured
CO/N=C1\CN(c2c(F)cc3c(=O)c(C(=O)O)cn(C4CC4)c3c2F)CC1CN (stereo not given) | < 0.008 | < 0.008 | < 0.008 | 0.031 (≈ 0.0763 µM) | 0.031 (≈ 0.0763 µM) | 0.25 (≈ 0.615 µM) | 0.5 (≈ 1.23 µM) | < 0.008 | < 0.008 | 0.5 (≈ 1.23 µM) | < 0.008 | 0.031 (≈ 0.0763 µM) | 0.016 (≈ 0.0394 µM) |  |  |  |  |  |  |  | MIC [1]: 0.031 µg/mL (≈ 0.0763 µM)
NCC1CCN(c2nc3c(cc2F)c(=O)c(C(=O)O)cn3C2CC2)C1 (stereo not given) | 0.016 (≈ 0.0462 µM) | 0.031 (≈ 0.0895 µM) | < 0.008 | 0.063 (≈ 0.182 µM) | 0.063 (≈ 0.182 µM) | 0.5 (≈ 1.44 µM) | 16 (≈ 46.2 µM) | 0.031 (≈ 0.0895 µM) | 0.016 (≈ 0.0462 µM) | 32 (≈ 92.4 µM) | 0.031 (≈ 0.0895 µM) | 0.13 (≈ 0.375 µM) | 0.031 (≈ 0.0895 µM) | 300 | 380 | 2.2 | 10.1 | 0.17 | 0.031 (≈ 0.0895 µM) | 0.5 (≈ 1.44 µM) | MIC ([16]; Acinetobacter calcoaceticus, read-out: MIC): 0.13 µg/mL (≈ 0.375 µM); ED50 (Mus musculus [17]): 29.8 mg/kg; ED50 (Mus musculus [18]): 8.03 mg/kg; ED50 (Mus musculus [19]): > 13.5 mg/kg; MIC (Streptococcus pneumoniae): 0.063 µg/mL (≈ 0.182 µM); MIC (Staphylococcus aureus [22]): 0.031 µg/mL (≈ 0.0895 µM)
CO/N=C1\CN(c2nc3c(cc2F)c(=O)c(C(=O)O)cn3C2CC2)CC1CN (stereo in doubt; 20) [GEMIFLOXACIN] |  |  |  |  |  |  |  |  |  |  |  |  |  | 2440 | 8500 | 2.33 | 95.3 | 0.33 | < 0.008 | 0.25 (≈ 0.642 µM) | Cmax [23]: 1340 ng/mL; AUC [24]: 7550 ng·h/mL; bioavailability [25]: 71%; Tmax [26]: 1.13 h; MIC [16]: 0.063 µg/mL (≈ 0.162 µM); half-life [27]: 5.12 h; MIC (Escherichia coli [4]): 0.031 µg/mL (≈ 0.0796 µM); MIC (Klebsiella aerogenes): 0.031 µg/mL (≈ 0.0796 µM); ED50 (Mus musculus [28]): 0.47 mg/kg; ED50 (Mus musculus [29]): 2.08 mg/kg; ED50 (Mus musculus [30]): 1.17 mg/kg; ED50 (Mus musculus [31]): 7.64 mg/kg; MIC (Mus musculus [32]): < 0.008 µg/mL; MIC (Mus musculus [33]): 0.016 µg/mL (≈ 0.0411 µM); MIC (Pseudomonas aeruginosa [5]): 0.25 µg/mL (≈ 0.642 µM); MIC (Staphylococcus aureus [6]): 4 µg/mL (≈ 10.3 µM); MIC [9]: 4 µg/mL (≈ 10.3 µM); MIC (Enterococcus faecalis): 0.063 µg/mL (≈ 0.162 µM)
